Assay results taken from patent publication US7981903B2, “2-[2-{phenylamino}-1H-pyrrolo[2,3-D]pyrimidin-4-yl)amino] benzamide derivatives as IGF-1R inhibitors for the treatment of cancer” (GlaxoSmithKline LLC, priority 2007, dated 2011).

Key:
[1] = molecular target: T1, NIH-3T3 cells overexpressing human IR (Homo sapiens, UniProt P06213); test: IR cellular autophosphorylation (DELFIA); assay type: cell-based; conditions: 2 h compound, insulin 3 ug/ml for 15 minutes, IC50 category
T1 construct: expressed in transfected cells; host or cells: NIH-3T3 (mouse fibroblasts)
T1 sequence (P06213 28-1382): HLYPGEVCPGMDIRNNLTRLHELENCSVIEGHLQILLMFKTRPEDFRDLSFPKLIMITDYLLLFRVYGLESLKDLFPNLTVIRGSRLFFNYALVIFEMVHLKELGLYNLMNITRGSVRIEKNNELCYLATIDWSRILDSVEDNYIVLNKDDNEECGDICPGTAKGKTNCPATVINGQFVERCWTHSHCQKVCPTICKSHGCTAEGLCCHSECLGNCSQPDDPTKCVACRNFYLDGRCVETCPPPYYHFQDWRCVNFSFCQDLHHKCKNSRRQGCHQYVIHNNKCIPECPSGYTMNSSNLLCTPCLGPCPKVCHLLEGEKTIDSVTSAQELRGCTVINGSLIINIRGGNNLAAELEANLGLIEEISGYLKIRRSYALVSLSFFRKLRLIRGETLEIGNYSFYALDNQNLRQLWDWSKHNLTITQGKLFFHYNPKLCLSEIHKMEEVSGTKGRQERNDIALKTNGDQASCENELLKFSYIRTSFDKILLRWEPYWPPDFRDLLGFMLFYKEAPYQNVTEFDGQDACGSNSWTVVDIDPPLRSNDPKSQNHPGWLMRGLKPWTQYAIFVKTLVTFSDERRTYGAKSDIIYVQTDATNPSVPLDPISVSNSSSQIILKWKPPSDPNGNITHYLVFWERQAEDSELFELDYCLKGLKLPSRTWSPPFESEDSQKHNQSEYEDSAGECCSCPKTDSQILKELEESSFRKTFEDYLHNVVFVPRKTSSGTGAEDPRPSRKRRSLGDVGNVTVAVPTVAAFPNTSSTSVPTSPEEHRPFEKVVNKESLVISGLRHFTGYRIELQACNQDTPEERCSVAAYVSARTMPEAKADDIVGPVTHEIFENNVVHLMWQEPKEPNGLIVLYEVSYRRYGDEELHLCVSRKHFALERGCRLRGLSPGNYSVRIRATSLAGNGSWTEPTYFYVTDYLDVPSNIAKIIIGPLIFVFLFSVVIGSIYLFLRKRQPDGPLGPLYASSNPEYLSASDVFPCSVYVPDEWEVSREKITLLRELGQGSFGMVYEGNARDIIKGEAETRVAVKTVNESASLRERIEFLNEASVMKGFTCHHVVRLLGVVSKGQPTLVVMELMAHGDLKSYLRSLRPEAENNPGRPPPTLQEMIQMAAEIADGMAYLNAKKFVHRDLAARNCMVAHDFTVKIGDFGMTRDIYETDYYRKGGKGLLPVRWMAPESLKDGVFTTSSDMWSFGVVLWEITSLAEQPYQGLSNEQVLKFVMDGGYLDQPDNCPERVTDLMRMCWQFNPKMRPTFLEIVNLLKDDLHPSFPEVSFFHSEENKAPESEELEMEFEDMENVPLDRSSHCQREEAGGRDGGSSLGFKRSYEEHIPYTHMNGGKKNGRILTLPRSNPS
Outline: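 Receptor autophosphorylation measured by DELFIA, capturing IGF-1R or IRβ and detecting with europium anti-pTyr, reported as percent of IGF-1- or insulin-stimulated signal. Compounds (30 uM to 1.5 nM) added 2 h before ligand, then 15 min stimulation (IGF-1 30 ng/ml or insulin 3 ug/ml).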

[2] = test system: Colo205; test: Inhibition of cell proliferation (CellTiter-Glo or InCell analyzer), Colo205; assay type: cell-based; conditions: Homo sapiens, COLO 205, 72 h / 3 days, values given as IC50 category
Outline: In one

[3] = molecular target: ALK (Homo sapiens, UniProt Q9UM73); test: ALK enzyme assay (HTRF); assay type: biochemical; conditions: 0.25 nM ALK, 15.0 μM ATP, values given as pIC50 category
ALK, sequence (Q9UM73 19-1620): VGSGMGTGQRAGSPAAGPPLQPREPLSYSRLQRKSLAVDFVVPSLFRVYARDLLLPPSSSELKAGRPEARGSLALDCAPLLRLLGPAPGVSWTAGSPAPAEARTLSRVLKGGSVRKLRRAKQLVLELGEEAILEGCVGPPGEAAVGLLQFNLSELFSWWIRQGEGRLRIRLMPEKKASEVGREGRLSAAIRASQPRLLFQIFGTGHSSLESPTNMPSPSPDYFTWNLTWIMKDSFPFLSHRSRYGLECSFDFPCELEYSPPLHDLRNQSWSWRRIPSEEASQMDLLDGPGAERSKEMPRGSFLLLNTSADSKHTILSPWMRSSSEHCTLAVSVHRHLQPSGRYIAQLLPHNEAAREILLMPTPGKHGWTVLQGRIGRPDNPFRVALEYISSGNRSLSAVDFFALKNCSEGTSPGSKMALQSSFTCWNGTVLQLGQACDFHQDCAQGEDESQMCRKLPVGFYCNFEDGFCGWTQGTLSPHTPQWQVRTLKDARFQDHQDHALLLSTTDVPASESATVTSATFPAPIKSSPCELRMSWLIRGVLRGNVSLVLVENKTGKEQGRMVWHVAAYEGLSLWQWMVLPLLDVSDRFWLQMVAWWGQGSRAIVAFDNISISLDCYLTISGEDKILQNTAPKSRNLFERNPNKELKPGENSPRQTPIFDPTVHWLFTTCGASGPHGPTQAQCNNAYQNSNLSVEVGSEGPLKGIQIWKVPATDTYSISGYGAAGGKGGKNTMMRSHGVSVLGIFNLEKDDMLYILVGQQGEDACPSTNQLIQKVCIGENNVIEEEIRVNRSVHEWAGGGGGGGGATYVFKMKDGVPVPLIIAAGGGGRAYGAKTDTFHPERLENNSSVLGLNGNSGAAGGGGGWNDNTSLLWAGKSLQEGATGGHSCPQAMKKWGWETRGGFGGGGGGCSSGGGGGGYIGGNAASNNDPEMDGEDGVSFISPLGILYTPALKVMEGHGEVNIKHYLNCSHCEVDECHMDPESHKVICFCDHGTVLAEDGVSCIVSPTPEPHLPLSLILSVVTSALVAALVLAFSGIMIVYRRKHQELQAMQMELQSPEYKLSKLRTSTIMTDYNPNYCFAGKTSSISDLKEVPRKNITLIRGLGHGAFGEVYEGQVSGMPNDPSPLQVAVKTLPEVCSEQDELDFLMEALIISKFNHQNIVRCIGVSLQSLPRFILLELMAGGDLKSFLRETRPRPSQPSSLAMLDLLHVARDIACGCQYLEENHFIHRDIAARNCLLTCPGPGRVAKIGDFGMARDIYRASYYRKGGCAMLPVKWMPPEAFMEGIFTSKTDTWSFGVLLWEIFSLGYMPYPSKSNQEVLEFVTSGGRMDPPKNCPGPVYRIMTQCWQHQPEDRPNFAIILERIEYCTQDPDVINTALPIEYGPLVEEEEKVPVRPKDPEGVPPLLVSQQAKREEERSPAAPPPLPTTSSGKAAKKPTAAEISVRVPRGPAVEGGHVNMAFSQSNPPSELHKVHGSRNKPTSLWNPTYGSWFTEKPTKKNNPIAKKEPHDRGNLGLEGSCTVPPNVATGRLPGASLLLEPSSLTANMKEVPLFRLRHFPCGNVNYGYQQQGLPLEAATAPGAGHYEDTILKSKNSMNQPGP
Outline: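 Final compound range 0.00017 to 10 μM (twelve 1:3 dilutions). Kinase reaction with ATP and biotinylated synthetic peptide runs 120 min at 20° C, stopped with EDTA; phosphotyrosine detected by HTRF after 60 min. Inhibition referenced to DMSO (1%) and EDTA (0.1 M) controls, curve-fitted.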

[4] = test system: NCI-H929; test: Inhibition of cell proliferation (CellTiter-Glo or InCell analyzer), NCI-H929; assay type: cell-based; conditions: Homo sapiens, 72 h / 3 days, values given as IC50 category
Outline: In one

Row | SMILES | IC50 [1] [nM] | IC50 [2] [nM] | IC50 [3] [nM] | IC50 [4] [nM]
1 | COc1cc2c(cc1Nc1nc(Nc3cccc(F)c3C(N)=O)c3cc[nH]c3n1)CN(C)CC2 [Example 121, 2-fluoro-6-[(2-{[2-methyl-6-(methyloxy)-1,2,3,4-tetrahydro-7-isoquinolinyl]amino}-1H-pyrrolo[2,3-d]pyrimidin-4-yl)amino]benzamide] | 100 to 500 | 250 to 1000 | 1.26 to 3.98 | < 250
2 | COc1cc2c(cc1Nc1nc(Nc3cccc(F)c3C(N)=O)c3cc[nH]c3n1)NCCC2 [Example 211, 2-fluoro-6-[(2-{[6-(methyloxy)-1,2,3,4-tetrahydro-7-quinolinyl]amino}-1H-pyrrolo[2,3-d]pyrimidin-4-yl)amino]benzamide] | > 500 | > 1000 | 5.01 to 200 | > 1000
3 | COc1cc2c(cc1Nc1nc(Nc3cc(Cl)cc(F)c3C(N)=O)c3cc[nH]c3n1)N(C(=O)CN1CCCC1)CC2 [Example 175, 4-chloro-2-fluoro-6-[(2-{[5-(methyloxy)-1-(1-pyrrolidinylacetyl)-2,3-dihydro-1H-indol-6-yl]amino}-1H-pyrrolo[2,3-d]pyrimidin-4-yl)amino]benzamide] | < 100 | 250 to 1000 | 1.26 to 3.98 | < 250
4 | CCN(C)CC(=O)N1CCc2cc(OC)c(Nc3nc(Nc4cccc(F)c4C(=O)NC)c4cc[nH]c4n3)cc21 [Example 165, 2-[(2-{[1-(N-ethyl-N-methylglycyl)-5-(methyloxy)-2,3-dihydro-1H-indol-6-yl]amino}-1H-pyrrolo[2,3-d]pyrimidin-4-yl)amino]-6-fluoro-N-methylbenzamide] | 100 to 500 | > 1000 | 1.26 to 3.98 | 250 to 1000
5 | CCNC(=O)c1c(F)cc(F)cc1Nc1nc(Nc2cc3c(cc2OC)CCCN3C(=O)CN(C)C)nc2[nH]ccc12 [Example 180, 2-[(2-{[1-(N,N-dimethylglycyl)-6-(methyloxy)-1,2,3,4-tetrahydro-7-quinolinyl]amino}-1H-pyrrolo[2,3-d]pyrimidin-4-yl)amino]-N-ethyl-4,6-difluorobenzamide] | < 100 | 250 to 1000 | 0.251 to 1 | 250 to 1000
6 | COc1cc2c(cc1Nc1nc(Nc3cccc(F)c3C(N)=O)c3cc[nH]c3n1)N(C(=O)CCN1CCOCC1)CC2 [Example 187, 2-fluoro-6-{[2-({5-(methyloxy)-1-[3-(4-morpholinyl)propanoyl]-2,3-dihydro-1H-indol-6-yl}amino)-1H-pyrrolo[2,3-d]pyrimidin-4-yl]amino}benzamide] | 100 to 500 | > 1000 | 1.26 to 3.98 | < 250
7 | CNC(=O)c1c(F)cccc1Nc1nc(Nc2cc(N(C)C(=O)CN(C)C)ccc2OC)nc2[nH]ccc12 [Example 242, 2-[(2-{[5-[(N,N-dimethylglycyl)(methyl)amino]-2-(methyloxy)phenyl]amino}-1H-pyrrolo[2,3-d]pyrimidin-4-yl)amino]-6-fluoro-N-methylbenzamide] | < 100 | > 1000 | 5.01 to 200 | > 1000
8 | CNC(=O)c1c(F)cc(F)cc1Nc1nc(Nc2cc3c(cc2OC)CCCN3C(=O)CN(C)C)nc2[nH]ccc12 [Example 179, 2-[(2-{[1-(N,N-dimethylglycyl)-6-(methyloxy)-1,2,3,4-tetrahydro-7-quinolinyl]amino}-1H-pyrrolo[2,3-d]pyrimidin-4-yl)amino]-4,6-difluoro-N-methylbenzamide] | < 100 | < 250 | 0.251 to 1 | < 250
9 | CCCN1CCC(c2ccc(Nc3nc(Nc4cc(F)cc(F)c4C(N)=O)c4cc[nH]c4n3)c(OC)c2)CC1 [Example 92, 2,4-difluoro-6-[(2-{[2-(methyloxy)-4-(1-propyl-4-piperidinyl)phenyl]amino}-1H-pyrrolo[2,3-d]pyrimidin-4-yl)amino]benzamide] | < 100 | < 250 | 0.251 to 1 | < 250
10 | COc1cc2c(cc1Nc1nc(Nc3cc(Cl)cc(F)c3C(N)=O)c3cc[nH]c3n1)N(C(=O)CN(C)C)CC2 [Example 119, 4-chloro-2-[(2-{[1-(N,N-dimethylglycyl)-5-(methyloxy)-2,3-dihydro-1H-indol-6-yl]amino}-1H-pyrrolo[2,3-d]pyrimidin-4-yl)amino]-6-fluorobenzamide] | < 100 | 250 to 1000 | 1.26 to 3.98 | < 250
11 | CNC(=O)c1c(F)cccc1Nc1nc(Nc2cc3c(cc2OC)CCCN3C(=O)CCN(C)C)nc2[nH]ccc12 [Example 213, 2-[(2-{[1-(N,N-dimethyl-β-alanyl)-6-(methyloxy)-1,2,3,4-tetrahydro-7-quinolinyl]amino}-1H-pyrrolo[2,3-d]pyrimidin-4-yl)amino]-6-fluoro-N-methylbenzamide] | > 500 | > 1000 | 5.01 to 200 | 250 to 1000
